In patent publication US20080214606A1, “Methods for the Identification and Use of Compounds Suitable for the Treatment of Drug Resistant Cancer Cells” (The Government of the United States of America as …, priority 2004, published 2008):

Target: ABCB1 (Homo sapiens, UniProt P08183)
Assay: Correlation of ABCB1 expression with drug sensitivity across the NCI-60
Protocol: Expression levels are measured by real-time quantitative RT-PCR using the LightCycler RNA Amplification SYBR Green kit and a LightCycler machine (Roche Biochemicals, Indianapolis, Ind.). Specific oligonucleotide probes are designed for each of the ABC transporters using DNAStar Primer Select (DNASTAR Inc.), and they may be synthesized at Lofstrand Laboratories (Gaithersburg, Md.). When possible, the amplicons are designed to encompass exon-intron boundaries to avoid amplification of genomic DNA. Since the Syber Green assay detects accumulation of double stranded DNA, primers are selected (from a battery consisting of about 200 primers) that amplified a single product of the correct size.
RT-PCR is carried out on 150 ng total RNA, in the presence of 250 nM specific primers. Following reverse transcription (20 min at 50° C.), the PCR reaction consists of 45 cycles of denaturation (15 sec at 95° C.), annealing (30 sec at 58° C.), and elongation (30 sec at 72° C.). No-template (water) reaction mixtures are prepared as negative controls.
During PCR amplification, fluorescence emission is measured and recorded in real time by the LightCycler. Crossing point values are calculated, using the LightCycler software package, by the Fit Points analysis method, with baseline fluorescence set at 1. The SyberGreen assay measures accumulation of double-stranded products, and the appearance of primer dimers limits quantitation at high cycle numbers. […] The raw results are expressed as number of cycles to reach the crossing point. If the desired product is not detected, the corresponding value is adjusted to crossing points indicating no expression. To assess the contribution of experimental artifacts, selected cell lines are assessed in replicate.
Both sets are available at http://discover.nci.nih.gov. The two are combined to form a joint dataset that includes 1429 compounds.
To determine quantitatively how well the 47 genes cluster the cell lines by their tissues of origin, a statistical method is employed wherein the kappa statistic is used to indicate how well the observed clusters correspond to the nine tissue-of-origin classifications. […] To control the overall false type 1 error rate, both a step-down procedure (Westfall and Young, 1993, Resampling-Based Multiple Testing: Examples and Methods for p-value Adjustment (New York: Wiley)) and a step-up procedure (Reiner et al., 2003, Bioinformatics 19:368-375) were employed to adjust for multiple testing of all 47 genes simultaneously. In the Benjamini-Hochberg procedure the p-values are computed in the standard way by permutation, assuming that all distributions are exchangeable: the number of values in the permuted data with correlations over a threshold, divided by the number of compounds and by the number of permutations. In this analysis, the False Discovery Rate (q-value) at which each compound would be declared was calculated using the step-up procedure for positively correlated test statistics (again true because all correlations being compared are computed against the same ABC gene): in this procedure the first q-value for the largest correlation is the Bonferroni-corrected p-value for that gene; then further q-values are calculated as qj=max(pj*1429/j, qj-1). This procedure limits the expected proportion of false positives in the list 1, . . . , j to at most qj.

Sequence of ABCB1 (P08183 whole entry): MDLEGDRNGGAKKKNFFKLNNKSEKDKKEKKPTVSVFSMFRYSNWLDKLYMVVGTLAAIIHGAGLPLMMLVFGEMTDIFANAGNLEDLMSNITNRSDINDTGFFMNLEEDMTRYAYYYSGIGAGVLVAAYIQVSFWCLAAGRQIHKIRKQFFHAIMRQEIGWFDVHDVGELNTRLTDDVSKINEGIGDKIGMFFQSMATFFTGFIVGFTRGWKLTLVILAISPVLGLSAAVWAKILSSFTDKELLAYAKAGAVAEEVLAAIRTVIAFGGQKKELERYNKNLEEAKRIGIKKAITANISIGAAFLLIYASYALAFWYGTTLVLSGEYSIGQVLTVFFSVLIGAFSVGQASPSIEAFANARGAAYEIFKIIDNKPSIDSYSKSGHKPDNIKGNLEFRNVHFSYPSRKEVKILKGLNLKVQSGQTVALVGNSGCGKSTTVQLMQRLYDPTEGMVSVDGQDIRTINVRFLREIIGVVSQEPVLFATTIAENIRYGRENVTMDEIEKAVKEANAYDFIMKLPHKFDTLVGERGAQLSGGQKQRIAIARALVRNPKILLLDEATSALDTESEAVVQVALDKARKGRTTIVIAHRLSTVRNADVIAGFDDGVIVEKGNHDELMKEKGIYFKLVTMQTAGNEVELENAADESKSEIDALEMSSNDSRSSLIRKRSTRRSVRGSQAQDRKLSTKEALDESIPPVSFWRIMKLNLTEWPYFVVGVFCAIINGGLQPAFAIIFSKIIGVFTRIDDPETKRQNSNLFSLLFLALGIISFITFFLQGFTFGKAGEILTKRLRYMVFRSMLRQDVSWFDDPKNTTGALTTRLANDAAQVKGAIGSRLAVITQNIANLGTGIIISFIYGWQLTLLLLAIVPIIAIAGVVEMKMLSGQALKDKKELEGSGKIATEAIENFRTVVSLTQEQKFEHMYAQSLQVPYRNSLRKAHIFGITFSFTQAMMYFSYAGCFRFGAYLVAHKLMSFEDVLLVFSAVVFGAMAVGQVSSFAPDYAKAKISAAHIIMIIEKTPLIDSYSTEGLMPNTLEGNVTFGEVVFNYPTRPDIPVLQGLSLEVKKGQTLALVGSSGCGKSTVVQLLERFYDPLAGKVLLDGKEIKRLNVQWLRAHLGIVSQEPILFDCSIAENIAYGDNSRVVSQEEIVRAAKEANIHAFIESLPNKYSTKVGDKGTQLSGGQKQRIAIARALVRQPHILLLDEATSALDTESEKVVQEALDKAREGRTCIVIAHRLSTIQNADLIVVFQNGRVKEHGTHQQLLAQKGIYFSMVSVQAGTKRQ

Row | Structure (SMILES) | Pearson's Correlation Coeff | Correlation of antiproliferative activity with ABCB1 expression | Correlation
1 | Cc1cc(C)n(-c2nc3ccccc3c(=O)[nH]2)n1 [NSC691081] | 0.4305 | – | –
2 | Cc1ccc2c(c1)-c1c(C#N)c(N)nc(-c3ccc(Cl)cc3)c1CCS2(=O)=O [NSC691578] | 0.2102 | – | –
3 | O=C(NO)c1cccc(OCc2ccc(Br)cc2)c1 [NSC692756] | 0.4093 | – | –
4 | O=[N+]([O-])C(=C\c1cccs1)/C(=C/c1cccs1)[N+](=O)[O-] [NSC693131] | 0.2788 | – | –
5 | S=C(N/N=C\C=N/NC(=S)N1CCCCC1)N1CCCCC1 [NSC693323] | 0.3180 | – | –
6 | c1ccc(/C(=N/Nc2ccccn2)c2cccnn2)cc1 [NSC693623] | 0.2952 | – | –
7 | N#Cc1c(Nc2ccccc2)[n+]([O-])c2ccc(Cl)cc2[n+]1[O-] [NSC693869] | 0.2805 | – | –
8 | Cl.Oc1c(CN2CCCC2)ccc2cccnc12 [NSC693871] | 0.6160 | 0.6811 | –
9 | C[n+]1c2ccccc2n2c3ccccc3c(NCCCn3ccnc3)c(C#N)c21.Cc1ccc(S(=O)(=O)[O-])cc1 [NSC694268] | – | – | −0.5914
10 | C=C(C=O)c1c2c(nc3ccccc13)C(=O)c1ccccc1C2=O [NSC694489] | 0.3742 | – | –
11 | O=C1c2ccccc2C(=O)c2c1nc1ccccc1c2-c1cncc(-c2c3c(nc4ccccc24)C(=O)c2ccccc2C3=O)c1 [NSC694490] | 0.2438 | – | –
12 | COc1ccc2oc(S(=O)(=O)N3CC(CCl)c4ccc(N)cc43)cc2c1 (stereo not drawn) [NSC696124] | 0.2104 | – | –
13 | COc1ccc2oc(S(=O)(=O)N3CC(CCl)c4ccc([N+](=O)[O-])cc43)cc2c1 (stereo not drawn) [NSC696992] | 0.2171 | – | –
14 | CC(C)=CCCC(C)c1c(O)c(O)c(C)c2nc3ccccc3nc12 (stereo not drawn) [NSC697120] | 0.4167 | 0.4435 | –
15 | CC(C)=CCC[C@@H](C)C1=C(O)C(=O)C(C)=C(N)C1=O [NSC697125] | 0.5604 | 0.5358 | –
16 | CNC1=C(C)C(=O)C(O)=C([C@H](C)CCC=C(C)C)C1=O [NSC697128] | 0.4568 | 0.4349 | –
17 | CC(C)=CCC[C@@H](C)C1=C(O)C(Nc2ccccc2)=C(C)C(=O)C1=O [NSC697129] | 0.4854 | 0.4663 | –
18 | CC(C)=CCC[C@@H](C)c1c2[nH]c3ccccc3sc-2c(C)c(=O)c1=O [NSC697130] | 0.4582 | 0.3925 | –
19 | CC(C)=CCC[C@@H](C)C1=C(Nc2ccccc2F)C(=O)C(C)=C(O)C1=O [NSC697131] | 0.3514 | 0.3522 | –

Row | Structure (SMILES) | Pearson's Correlation Coeff | Correlation of antiproliferative activity with ABCB1 expression | Correlation
20 | CC(C)=CCC[C@@H](C)c1c2ncc[nH]c-2c(C)c(=O)c1O [NSC697135] | 0.4052 | 0.4249 | –
21 | CC(C)=CCC[C@@H](C)C1=C(O)C(=O)C(C)=C(NC(C)c2ccccc2)C1=O (stereo partly drawn) [NSC697137] | 0.3828 | 0.4295 | –
22 | CC(C)=CCC[C@@H](C)C1=C(Nc2ccccc2Cl)C(O)=C(C)C(=O)C1=O [NSC697138] | 0.3551 | – | –
23 | Oc1ccc2ccccc2c1-c1nnc(CCCCCCCCc2nnc(-c3c(O)ccc4ccccc34)o2)o1 [NSC697189] | 0.2621 | – | –
24 | CC1(C)C2CC1C(C(O)C1c3cc(-c4ccccn4)ncc3C3CC1C3(C)C)c1cc(-c3ccccn3)ncc12 (stereo not drawn) [NSC697653] | 0.1718 | – | –
25 | CC(=O)O[C@H]1C#C/C=C\C#CC[C@@H]2C(=O)N(C(=O)OC(C)(C)C)[C@@H]12 [NSC697686] | 0.2297 | – | –
26 | CCNc1nnc(-c2ccccc2Nc2ccccc2-c2nnc(NCC)s2)s1 [NSC698459] | 0.3095 | – | –
27 | CN(C)c1nc(N(C)C)nc(N(C)C)n1 [NSC 13875] | – | 0.4856 | –
28 | Oc1c(CN2CCN(c3ccccc3)CC2)cc(Br)c2cccnc12 [NSC 117028] | – | 0.3579 | –
29 | C=C(C)[C@@H]1CCc2c(O)c(O)c(=O)cc(C)c2C1 [NSC 310618] | – | 0.3698 | –
30 | O=C(O)Cc1cccc2c(=O)cc(-c3ccccc3)oc12 [NSC 347512] | – | 0.4109 | –
31 | Br.CCN(CC)CC[n+]1ccc2c(C)c3[nH]c4ccccc4c3c(C)c2c1.[Br-] [NSC 353076] | – | – | −0.7983
32 | COc1cc2c(c(O)c1O)-c1ccc(OC)c(=O)cc1C(NC(C)=O)CC2 (stereo not drawn) [NSC 354975] | – | – | −0.6043
33 | O=C(/C=C/c1ccc(Cl)cc1)c1ccccc(=O)c1O [NSC 356777] | – | 0.4021 | –
34 | CCN(CC)CC[n+]1ccc2c(C)c3[nH]c4ccccc4c3c(C)c2c1 [NSC 359449] | – | – | −0.7108
35 | Cc1ccc(S(=O)(=O)O)cc1.N/C(=N\N=C/c1cc(Br)cc(Br)c1O)NO [NSC 371168] | – | 0.3643 | –
36 | COc1c(OC(C)=O)c(OC(C)=O)cc2c1-c1ccc(SC)c(=O)cc1C(NC(C)=O)CC2 (stereo not drawn) [NSC 374980] | – | – | −0.5590
37 | Nc1nc(N)c2nc(CNc3ccc(C(=O)NC(CCC(=O)O)C(=O)O)cc3F)cnc2n1.O=C(O)C(F)(F)F (stereo not drawn) [NSC 607301] | – | 0.3523 | –
38 | CCOC(=O)NC1CC2CCC1(OC)C=C2C (stereo not drawn) [NSC 617278] | – | 0.424 | –

Row | Structure (SMILES) | Pearson's Correlation Coeff | Correlation of antiproliferative activity with ABCB1 expression | Correlation
39 | COc1ccc2nc3c(C(=O)NCCN(C)C)cccc3cc2c1.Cl [NSC 617959] | – | 0.3586 | –
40 | Cc1cc(C(=O)NCCN(C)C)c2nc3ccccc3cc2c1.Cl [NSC 617961] | – | 0.423 | –
41 | Cc1ccc2nc3c(C(=O)NCCN(C)C)cccc3cc2c1.Cl [NSC 617963] | – | 0.5317 | –
42 | CN(C)CCNC(=O)c1cc(Cl)cc2cc3ccccc3nc12.Cl [NSC 617966] | – | 0.3715 | –
43 | CN(C)c1ccc(/C=C2\C[N+](C)(C)C/C(=C\c3ccc(N(C)C)cc3)C2=O)cc1.[I-] [NSC 618757] | – | – | −0.6081
44 | CSc1nc2nn(Cc3ccccc3)cc2c(=O)[nH]1 [NSC 622927] | – | 0.4001 | –
45 | CNC(=O)C(C)C1CCC2(C)C=CC(=O)C(C)=C2C1O (stereo not drawn) [NSC 623069] | – | 0.459 | –
46 | O=C(N[C@@H](c1ccccc1)[C@@H](O)C(=O)OCc1ccc2c(c1)OCO2)c1ccccc1 [NSC 625349] | – | 0.3935 | –
47 | O=[Se](=O)c1ccccc1.O=[Se](=O)c1ccccc1.[Cu] [NSC 626670] | – | 0.4177 | –
48 | Cc1cc(C)c(C2=NO[C@@H]3[C@H]2C(=O)C=C2N(Cc4ccccc4)CCO[C@@]23O)c(C)c1 [NSC 627025] | – | 0.3511 | –
49 | CSc1sc(=S)sc1SC [NSC 627450] | – | 0.4454 | –
50 | O=C1CSc2sc(=S)sc2S1 [NSC 627451] | – | 0.3894 | –
51 | O=C1Sc2sc(=S)sc2SC1c1ccccc1 (stereo not drawn) [NSC 627452] | – | 0.3534 | –
52 | CCC(C)SC1SCC2C(=O)N(C)C3(CC3C)C(=O)OCC(NC(=O)c3nc4ccccc4cc3O)C(=O)NC(C)C(=O)N(C)C1C(=O)N(C)C1(CC1C)C(=O)OCC(NC(=O)c1nc3ccccc3cc1O)C(=O)NC(C)C(=O)N2C (stereo not drawn) [NSC 630678] | – | – | −0.7029
53 | O=C(CCc1nnc2s/c(=C\c3ccc4c(c3)OCO4)c(=O)n12)Nc1cc(Cl)ccc1Cl [NSC 635543] | – | 0.3514 | –
54 | C[N+]1(C)C/C(=C\C=C\c2ccccc2)C(=O)/C(=C/C=C/c2ccccc2)C1.[I-] [NSC 636679] | – | – | −0.5530
55 | c1cc(-c2cn3ccsc3n2)ccn1 [NSC 641288] | – | 0.3643 | –
56 | CC(C)OC(=S)Nc1ccc(Cl)c(/C=N/OC(C)(C)C)c1 [NSC 645542] | – | 0.3924 | –
57 | O=C1c2c(nc3ccccc3c2-c2ccccc2)CN1Nc1ccccn1 [NSC 648072] | – | 0.3579 | –
